Values quoted from earlier work in US8889725B2, “Sugar-based bait” (Bayer Cropscience AG, priority 2006, dated 2014).

Test system: Tapinoma sessile

CCOP(=S)(OCC)O/N=C(\C#N)c1ccccc1 [phoxim, O,O-diethylthionophosphoryl-α-oximinophenylacetonitrile]
control of the ants (baits with 0.05% by weight of phoxim in blackberry syrup or blackberry jam): complete control | acceptance of the bait by ants (baits with 0.5% to 1% by weight of phoxim): repellent action
